Measurements published in article doi:10.1101/2025.01.23.634542, “Convergent Agonist and Heat Activation of Nociceptor TRPM3” (bioRxiv, 2025).
pEC50: −log10 of the molar value.

Key:
[1] = test system: TRPM3 CIM0216 binding site mutants; assay: CIM0216-induced whole-cell currents in CIM0216 binding site mutants; assay type: cell-based, rabbit; details: whole-cell currents at +140 mV, 22 °C (Fig. 1c)
Excerpt: Figure 1: TRPM3 activation by superagonist CIM0216. a, Structure of TRPM3 in complex with CIM0216, shown in cartoon representation and viewed parallel to the membrane. CIM0216 (green) is fitted into the cryo-EM density map (right panel). One subunit is highlighted in red, and the rib helix from the adjacent subunit is highlighted in cyan. b, Close-up view of the CIM0216 binding site, detailing key interactions. c, Whole-cell currents measured in tsA cells overexpressing wild-type TRPM3 or CIM0216 binding site mutants at 22 °C. […] CIM0216-induced current amplitudes at +140 mV were calculated by subtracting the steady-state current recorded before CIM0216 application from the steady-state current recorded after CIM0216 application. Each point represents a single cell (from left to right, n = 6, 4, 5, 4, 4, 4, 4, 4, 4, 5), with bars indicating the mean. Statistical analysis was performed using one-way ANOVA with Bonferroni’s post hoc test (***P < 0.001). d, Structural comparison of CIM0216-bound activated state (red) and apo resting state (blue), superimposed using the TMD (residues 848–1119). Root-mean-square deviations (r.m.s.d.) are shown for individual domains. Black arrows indicate the approximate direction of domain movements.

[2] = molecular target: wild-type rabbit TRPM3 (rTRPM3) (Oryctolagus cuniculus, UniProt G1T6W8); assay: Whole-cell patch-clamp agonist dose-response, wild-type TRPM3 in tsA cells; assay type: cell-based; details: WT TRPM3, whole-cell current at +80 mV
wild-type rabbit TRPM3 (rTRPM3), sequence (G1T6W8 entry or part of it): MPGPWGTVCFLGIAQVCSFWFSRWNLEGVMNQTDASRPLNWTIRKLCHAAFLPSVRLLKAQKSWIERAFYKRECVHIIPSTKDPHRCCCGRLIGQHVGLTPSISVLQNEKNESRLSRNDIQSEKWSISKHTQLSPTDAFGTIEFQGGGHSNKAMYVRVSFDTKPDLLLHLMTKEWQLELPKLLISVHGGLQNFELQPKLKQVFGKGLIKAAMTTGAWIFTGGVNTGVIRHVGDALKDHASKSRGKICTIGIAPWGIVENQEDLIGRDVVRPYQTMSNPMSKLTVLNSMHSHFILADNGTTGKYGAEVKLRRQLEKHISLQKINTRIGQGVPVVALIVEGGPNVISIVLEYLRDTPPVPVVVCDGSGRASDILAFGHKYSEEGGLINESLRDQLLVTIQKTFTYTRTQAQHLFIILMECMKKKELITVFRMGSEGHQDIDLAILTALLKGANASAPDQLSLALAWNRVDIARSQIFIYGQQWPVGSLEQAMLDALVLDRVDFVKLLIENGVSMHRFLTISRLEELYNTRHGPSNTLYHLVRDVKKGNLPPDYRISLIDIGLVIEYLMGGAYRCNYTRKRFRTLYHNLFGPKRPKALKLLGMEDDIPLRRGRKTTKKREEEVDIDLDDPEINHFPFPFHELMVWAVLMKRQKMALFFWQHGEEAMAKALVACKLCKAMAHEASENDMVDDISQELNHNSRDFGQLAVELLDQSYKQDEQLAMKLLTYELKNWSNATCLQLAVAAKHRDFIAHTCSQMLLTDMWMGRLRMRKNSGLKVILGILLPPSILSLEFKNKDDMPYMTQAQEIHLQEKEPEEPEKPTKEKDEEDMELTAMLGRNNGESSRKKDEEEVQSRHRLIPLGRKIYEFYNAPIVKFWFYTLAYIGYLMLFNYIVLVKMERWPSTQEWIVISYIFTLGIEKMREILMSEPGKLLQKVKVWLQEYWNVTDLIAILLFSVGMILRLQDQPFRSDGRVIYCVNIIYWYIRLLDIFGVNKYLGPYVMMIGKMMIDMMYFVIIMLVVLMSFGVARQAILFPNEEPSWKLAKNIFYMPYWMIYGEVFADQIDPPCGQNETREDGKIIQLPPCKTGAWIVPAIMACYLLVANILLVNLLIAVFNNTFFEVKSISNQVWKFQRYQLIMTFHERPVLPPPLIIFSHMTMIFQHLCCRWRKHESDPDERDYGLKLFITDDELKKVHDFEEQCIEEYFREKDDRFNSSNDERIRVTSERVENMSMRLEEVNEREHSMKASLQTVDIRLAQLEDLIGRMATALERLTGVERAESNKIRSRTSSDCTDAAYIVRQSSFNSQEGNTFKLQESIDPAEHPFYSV

[3] = test system: TRPM3 mutants at the interface between the MHR1/2 domain and the rib helix; assay: Agonist sensitivity of mutants at the MHR1/2 domain-rib helix interface relative to wild type; assay type: cell-based, rabbit; details: interface mutants versus wild type, maximum fold
[4] = test system: TRPM3 primidone binding site mutants; assay: Primidone inhibition of PregS-induced currents in primidone binding site mutants; assay type: cell-based, rabbit; details: PregS-induced currents with and without primidone, 22 °C (Fig. 4c)
wild-type TRPM3 = assay: Primidone inhibition of heat-activated whole-cell currents, wild-type TRPM3; assay type: cell-based, rabbit; details: WT TRPM3, heat-activated whole-cell currents at 37 °C with primidone (Fig. 4d)

Row | pEC50 [2] | Effect of alanine substitutions at key binding residues on the inhibitory effect [4] | Molecule | Effect of alanine substitutions at key binding residues on CIM0216-evoked currents [1] | Higher sensitivity of mutants to agonist in dose-response experiments [3] | Effect on heat-induced channel activation (wild-type TRPM3)
1 | 6.15 | – | Cc1cc(NC(=O)C(c2ccccc2)N2CCCc3ccccc32)no1 (stereo not drawn) [CIM0216] | diminished or abolished | up to 3 fold | –
2 | – | markedly reduced or abolished | CCC1(c2ccccc2)C(=O)NCNC1=O [primidone] | – | – | effectively suppresses heat-induced channel activation
3 | – | – | pregnenolone sulfate [PregS] | – | up to 13 fold | –
